Test results: patent US20230279146A1, “VISCOSITY REDUCING EXCIPIENTS AND COMBINATIONS THEREOF FOR HIGHLY CONCENTRATED PROTEIN FORMULATIONS” (Merck Patent GmbH, priority 2020, published 2023)
“Also recorded” adds a separate entry of the source. Where a name gives a salt, the structure may show the parent alone.

Columns and labels:
Type in all cases: physicochemical
[1] = tested on: Evolocumab; test: Viscosity of Evolocumab formulated in acetate buffer pH 5.0 with single excipients (mVROC microfluidic viscometer, 20° C.); settings: for viscosity for Evolocumab formulations: pH 5.0, 150 mM excipient; for viscosity of the formulation: Evolocumab 196 mg/ml, 150 mM pyridoxine, thiamine hydrochloride or ascorbic acid, 75 mM Paracetamol; for viscosity of the formulation / viscosity of a Evolocumab formulation: pH 5.0; for viscosity reducing effect compared among the excipients: Evolocumab pH 5.0, 150 mM excipient, data set with concentration by absorption spectroscopy
Procedure: 20 mM Acetate buffer was prepared by mixing 1.2 mg/ml glacial acetic acid with ultrapure water. pH was adjusted to 5.0 using HCl and NaOH if necessary. 0.1 mg/ml Polysorbate 80 was added as stabilizer
Excipient solutions of 150 mM leucine, isoleucine, phenylalanine, ascorbic acid, pyridoxine, proline, lysine, guanidine hydrochloride, thiamine hydrochloride, thiamine monophosphate were prepared in acetate buffer pH 5.0, respectively. Similarly, 25 mM quinine hydrochloride and 5 mM cyanocobalamin were prepared, respectively. Paracetamol and thiamine pyrophosphate were prepared with a concentration of 75 mM. The pH was adjusted using HCl or NaOH, if necessary.
When excipients themselves have a strong absorbance at 280 nm a Bradford-Assay was used.
The mVROC™ Technology (Rheo Sense, San Ramon, Calif. USA) was used for viscosity measurements.
A volume of 200 μl was used. All samples were measured as triplicates.

[2] = tested on: Infliximab; test: Viscosity of Infliximab formulated in phosphate buffer pH 7.2 with single excipients (mVROC microfluidic viscometer, 20° C.); settings: for viscosity reducing effect on the Infliximab solution: protein concentrations 152 mg/ml and 185 mg/ml, 150 thiamine hydrochloride, thiamine monophosphate
Procedure: Individual excipient solutions of 150 mM valine, leucine, phenylalanine, ascorbic acid, pyridoxine, proline and thiamine monophosphate were prepared in phosphate buffer pH 7.2. In the same buffer, a 5 mM solution of cyanocobalamin was prepared. Folic acid was prepared in a 13 mM concentration in phosphate puffer pH 7.2. Thiamine pyrophosphate was prepared in a 75 mM concentration in phosphate puffer pH 7.2. The pH was adjusted using HCl or NaOH where necessary.
For absorption spectroscopy, the absorbance at 280 nm was measured using a BioSpectrometer® kinetic (Eppendorf, Hamburg, Germany) with a protein extinction coefficient of A0.1%, 280 nm=1.428.
The mVROC™ Technology (Rheo Sense, San Ramon, Calif., USA) was used for viscosity measurements.
Measurements were performed at 20° C. using a 500 μl syringe and a shear rate of 3000 s-1. A volume of 200 μl was used. All samples were measured as triplicates.
Results of viscosity measurements regarding these experiments can be seen in FIG. 1, FIG. 2 and FIG. 3.

[3] = tested on: Infliximab; test: Thermal stability (Tm, Tagg) of Infliximab in phosphate buffer pH 7.2 by nano-DSF; settings: Infliximab pH 7.2, change versus control; for aggregation onset temperature Tagg: 150 mM excipient; for thermodynamic transition temperature characterizing heat induced protein unfolding (Tm): 150 mM valine, leucine, ascorbic acid or proline, 5 mM cyanocobalamin
Procedure: 2.1 Thermal Stability of Infliximab Formulated in Phosphate Buffer pH 7.2 Containing Valine, Leucine, Ascorbic Acid, Cyanocobalamin and Proline as Single Excipients
Buffers and samples were prepared as described under 1.1.
The nano-DSF Technology of a Prometheus system (NanoTemper Technologies GmbH, Munich, Germany) was used to determine melting points and aggregation points.
Fluorescence was measured at 330 and 350 nm as well as the backscattering intensity over a temperature range from 20 to 95° C. with an incline of 1° C./min.
Buffers and samples were prepared as described under 1.4 and 1.5.
Thermal stability measurements were performed as described under 2.1.

[4] = higher protein concentration of 192 mg/ml
[5] = protein concentration 192 mg/ml (first mention, absorption spectroscopy)
[6] = 5 mM cyanocobalamin, 25 mM quinine hydrochloride
[7] = protein concentration 180 mg/ml (Bradford assay), 150 mM pyridoxine or thiamine hydrochloride, 5 mM cyanocobalamin, 25 mM quinine hydrochloride, 75 mM paracetamol
[8] = protein concentration 122 mg/ml (absorption spectroscopy), pH 7.2, 150 mM excipient, versus no excipient
[9] = protein concentration 143 mg/ml, pH 7.2, 150 mM excipient, versus no excipient
[10] = protein concentration 174 mg/ml, 150 mM pyridoxine, ascorbic acid, thiamine hydrochloride or thiamine phosphate, 5 mM cyanocobalamin, 13 mM folic acid, 75 mM thiamine pyrophosphate, versus formulation without excipients
[11] = protein concentration 149 mg/ml, 150 mM pyridoxine, thiamine hydrochloride or thiamine monophosphate, 5 mM cyanocobalamin, 13 mM folic acid, 75 mM thiamine pyrophosphate
[12] = third data set, 75 mM thiamine pyrophosphate, 150 mM thiamine hydrochloride, thiamine monophosphate (thiamine monophosphate only at 180 mg/ml)

CC[C@H](C)[C@H](N)C(=O)O [isoleucine]
viscosity for Evolocumab formulations [1, 4]: reduced viscosity
viscosity for Evolocumab formulations [1, 5]: reduced viscosity

C=C[C@H]1C[N@@]2CC[C@H]1C[C@H]2[C@H](O)c1ccnc2ccc(OC)cc12 [quinine hydrochloride, (R)-[(1S,2S,4S,5R)-5-ethenyl-1-azabicyclo[2.2.2]octan-2-yl](6-methoxyquinolin-4-yl)methanol dihydrate hydrochloride, reference compound]
viscosity of the formulation [1, 6]: reduced the viscosity of the formulation
viscosity of a Evolocumab formulation [1, 7]: reduced viscosity of the formulation

N=C(N)N [guanidine hydrochloride, carbamimidoylazanium chloride]
viscosity reducing effect compared among the excipients [1]: most pronounced viscosity reducing effect
viscosity for Evolocumab formulations [1, 4]: reduced viscosity
viscosity for Evolocumab formulations [1, 5]: reduced viscosity

N[C@@H](Cc1ccccc1)C(=O)O [phenylalanine]
viscosity of the formulation [2, 8]: reduced the viscosity of the formulation
viscosity of the formulation [2, 9]: reduced viscosity of the formulation; also recorded: most efficient viscosity reducing excipient
viscosity for Evolocumab formulations [1, 4]: reduced viscosity
viscosity for Evolocumab formulations [1, 5]: reduced viscosity

CC(C)C[C@H](N)C(=O)O [leucine]
viscosity of the formulation [2, 8]: reduced the viscosity of the formulation
viscosity of the formulation [2, 9]: reduced viscosity of the formulation
viscosity reducing effect compared among the excipients [1]: most pronounced viscosity reducing effect
viscosity for Evolocumab formulations [1, 4]: reduced viscosity
viscosity for Evolocumab formulations [1, 5]: reduced viscosity
aggregation onset temperature Tagg [3]: increase
thermodynamic transition temperature characterizing heat induced protein unfolding (Tm) [3]: increase

O=C1O[C@H]([C@@H](O)CO)C(O)=C1O [ascorbic acid]
viscosity of the formulation [2, 10]: viscosity reducing effect
viscosity of the formulation [1, 6]: reduced viscosity of the formulation
aggregation onset temperature Tagg [3]: increase
thermodynamic transition temperature characterizing heat induced protein unfolding (Tm) [3]: increase

CC(=O)Nc1ccc(O)cc1 [paracetamol, reference compound]
viscosity of the formulation [1, 6]: reduced the viscosity of the formulation
viscosity of a Evolocumab formulation [1, 7]: reduced viscosity of the formulation

Cc1ncc(C[n+]2csc(CCO[P@](=O)(O)OP(=O)(O)O)c2C)c(N)n1 [thiamine pyrophosphate]
viscosity of the formulation [2, 11]: reduce the viscosity of the formulation
viscosity of the formulation [2, 10]: reduce the viscosity of the formulation
viscosity reducing effect on the Infliximab solution ([2]; 75 mM thiamine pyrophosphate): strong viscosity reducing effect
viscosity reducing efficiency ([1]; formulations with 179 mg/ml and 204 mg/ml Evolocumab, 75 mM excipient): highly efficient
viscosity of a Evolocumab formulation [1, 12]: reduced the viscosity

Nc1nc2ncc(CNc3ccc(C(=O)N[C@@H](CCC(=O)O)C(=O)O)cc3)nc2c(=O)[nH]1 [folic acid]
viscosity of the formulation [2, 11]: reduce the viscosity of the formulation
viscosity of the formulation [2, 10]: reduce the viscosity of the formulation

O=C(O)[C@@H]1CCCN1 [proline]
viscosity of the formulation [2, 8]: reduced the viscosity of the formulation
viscosity of the formulation [2, 9]: reduced viscosity of the formulation
viscosity for Evolocumab formulations [1, 4]: reduced viscosity
aggregation onset temperature Tagg [3]: increase
thermodynamic transition temperature characterizing heat induced protein unfolding (Tm) [3]: increase

Cc1ncc(C[n+]2csc(CCOP(=O)(O)O)c2C)c(N)n1 [thiamine monophosphate]
viscosity of the formulation [2, 11]: reduce the viscosity of the formulation
viscosity of the formulation [2, 10]: high viscosity reducing potential
viscosity of the formulation ([2]; protein concentration 174 mg/ml, 150 mM pyridoxine, ascorbic acid, thiamine hydrochloride or thiamine phosphate, 5 mM cyanocobalamin, 13 mM folic acid, 75 mM thiamine pyrophosphate, versus formulation without excipients, listed as thiamine phosphate): viscosity reducing effect
viscosity reducing effect on the Infliximab solution ([2]; 75 mM thiamine pyrophosphate): strong viscosity reducing effect
viscosity of a Evolocumab formulation [1, 12]: reduced the viscosity

Cc1ncc(C[n+]2csc(CCO)c2C)c(N)n1 [thiamine hydrochloride]
viscosity of the formulation ([2]; protein concentration 149 mg/ml, 150 mM pyridoxine, thiamine hydrochloride or thiamine monophosphate, 5 mM cyanocobalamin, 13 mM folic acid, 75 mM thiamine pyrophosphate, hydrochloride): reduce the viscosity of the formulation; also recorded: high viscosity reducing potential
viscosity of the formulation ([2]; protein concentration 174 mg/ml, 150 mM pyridoxine, ascorbic acid, thiamine hydrochloride or thiamine phosphate, 5 mM cyanocobalamin, 13 mM folic acid, 75 mM thiamine pyrophosphate, versus formulation without excipients, hydrochloride): high viscosity reducing potential
viscosity of the formulation ([2]; protein concentration 174 mg/ml, 150 mM pyridoxine, ascorbic acid, thiamine hydrochloride or thiamine phosphate, 5 mM cyanocobalamin, 13 mM folic acid, 75 mM thiamine pyrophosphate, versus formulation without excipients, listed as thiamine hydrochoride, hydrochloride): viscosity reducing effect
viscosity reducing effect on the Infliximab solution ([2]; 75 mM thiamine pyrophosphate): strong viscosity reducing effect
viscosity of the formulation ([1]; 5 mM cyanocobalamin, 25 mM quinine hydrochloride, hydrochloride): reduced viscosity of the formulation; also recorded: most efficient viscosity reducing excipient
viscosity of a Evolocumab formulation [1, 7]: reduced
viscosity of a Evolocumab formulation [1, 12]: reduced the viscosity

cyanocobalamin
viscosity of the formulation [2, 11]: reduce the viscosity of the formulation
viscosity of the formulation [2, 10]: reduce the viscosity of the formulation
viscosity of the formulation [1, 6]: reduced the viscosity of the formulation
viscosity of a Evolocumab formulation [1, 7]: reduced viscosity of the formulation
thermodynamic transition temperature characterizing heat induced protein unfolding (Tm) [3]: increase

NCCCC[C@H](N)C(=O)O [lysine]
viscosity reducing effect compared among the excipients [1]: most pronounced viscosity reducing effect
viscosity for Evolocumab formulations [1, 4]: reduced viscosity
viscosity for Evolocumab formulations [1, 5]: reduced viscosity

CC(C)[C@H](N)C(=O)O [valine]
viscosity of the formulation [2, 8]: reduced the viscosity of the formulation
aggregation onset temperature Tagg [3]: increase
thermodynamic transition temperature characterizing heat induced protein unfolding (Tm) [3]: increase

Cc1ncc(CO)c(CO)c1O [pyridoxine]
viscosity of the formulation [2, 11]: reduce the viscosity of the formulation
viscosity of the formulation [2, 10]: viscosity reducing effect
viscosity of the formulation [1, 6]: reduced viscosity of the formulation
viscosity of a Evolocumab formulation [1, 7]: reduced
